The record followed here is patent US12435060B2, “Acylamino bridged heterocyclic compound, and composition and application thereof” (BEIJING SCITECH-MQ PHARMACEUTICALS LIMITED, priority 2019, dated 2025).

The assay deals with HT29 cells. As to the kind of experiment: Inhibition of cell necrosis (CCK8 method), induced programmed necrosis of HT29 cells. The format is cell-based. The settings on record: Homo sapiens, HT-29; rescue from necrosis induced by TNF-α 20 ng/mL, AT-406 1 μM, Z-VAD-FMK 20 μM; 16-20 hours; CCK-8, OD 450 nm. A digest of the protocol:
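Rescue from programmed necrosis was scored by CCK-8 absorbance at 450 nm after 16-20 h of TNF-α (20 ng/mL), AT-406 (1 μM) and Z-VAD-FMK (20 μM) at 37 °C, 5% CO2. HT29 cells had received compound 30 min earlier across nine 4-fold dilutions (top 25000 nM final). IC50 came from % inhibition relative to uninduced and induced-only wells.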

Turning to `CC(C)(O)COc1ccc(C(F)(F)F)c(-c2ccnc(NC(=O)c3nnc(CC4CCCCC4)[nH]3)c2)c1` [Example 267, 5-(cyclohexylmethyl)-N-(4-(5-(2-hydroxyl-2-methylpropoxy)-2-(trifluoromethyl)phenyl)pyridin-2-yl)-4H-1,2,4-triazole-3-carboxamide], the IC50 is ≤ 100 nM.

Regarding `CC(C)(O)CCCCOc1ccc(C(F)(F)F)c(-c2ccnc(NC(=O)c3nnc(Cc4ccccc4)[nH]3)c2)c1` [Example 268, 5-benzyl-N-(4-(5-((5-hydroxyl-5-methylhexyl)oxy)-2-(trifluoromethyl)phenyl)pyridin-2-yl)-4H-1,2,4-triazole-3-carboxamide], the IC50 is ≤ 100 nM.

Turning to `CC(C)(O)CCCCOc1ccc(C(F)(F)F)c(-c2ccnc(NC(=O)c3nnc(Cc4ccccc4F)[nH]3)c2)c1` [Example 269, 5-(2-fluorobenzyl)-N-(4-(5-((5-hydroxyl-5-methylhexyl)oxy)-2-(trifluoromethyl)phenyl)pyridin-2-yl)-4H-1,2,4-triazole-3-carboxamide], the IC50 is ≤ 100 nM.

As for `CC(C)(O)CCCCOc1ccc(C(F)(F)F)c(-c2ccnc(NC(=O)c3nnc(CC4CCCC4)[nH]3)c2)c1` [Example 270, 5-(cyclopentylmethyl)-N-(4-(5-((5-hydroxyl-5-methylhexyl)oxy)-2-(trifluoromethyl)phenyl)pyridin-2-yl)-4H-1,2,4-triazole-3-carboxamide], the IC50 is ≤ 100 nM.

As to `CC(C)(O)CCCCOc1ccc(C(F)(F)F)c(-c2ccnc(NC(=O)c3nnc(CC4CCCCC4)[nH]3)c2)c1` [Example 271, 5-(cyclohexylmethyl)-N-(4-(5-((5-hydroxyl-5-methylhexyl)oxy)-2-(trifluoromethyl)phenyl)pyridin-2-yl)-4H-1,2,4-triazole-3-carboxamide], the IC50 is ≤ 100 nM.

As to `O=C(Nc1cc(-c2cc(OCCCCO)ccc2C(F)(F)F)ccn1)c1nnc(Cc2ccccc2)[nH]1` [Example 272, 5-benzyl-N-(4-(5-(4-hydroxybutoxy)-2-(trifluoromethyl)phenyl)pyridin-2-yl)-4H-1,2,4-triazole-3-carboxamide], the IC50 is ≤ 100 nM.

For `O=C(Nc1cc(-c2cc(OCCCCO)ccc2C(F)(F)F)ccn1)c1nnc(Cc2ccccc2F)[nH]1` [Example 273, 5-(2-fluorobenzyl)-N-(4-(5-(4-hydroxybutoxy)-2-(trifluoromethyl)phenyl)pyridin-2-yl)-4H-1,2,4-triazole-3-carboxamide], the IC50 was ≤ 100 nM.

For the molecule `O=C(Nc1cc(-c2cc(OCCCCO)ccc2C(F)(F)F)ccn1)c1nnc(CC2CCCC2)[nH]1` [Example 274, 5-(cyclopentylmethyl)-N-(4-(5-(4-hydroxybutoxy)-2-(trifluoromethyl)phenyl)pyridin-2-yl)-4H-1,2,4-triazole-3-carboxamide], the IC50 was ≤ 100 nM.

For the molecule `O=C(Nc1cc(-c2cc(OCCCCCO)ccc2C(F)(F)F)ccn1)c1nnc(Cc2ccccc2)[nH]1` [Example 275, 5-benzyl-N-(4-(5-((5-hydroxypentyl)oxy)-2-(trifluoromethyl)phenyl)pyridin-2-yl)-4H-1,2,4-triazole-3-carboxamide], the IC50 was ≤ 100 nM.

`O=C(Nc1cc(-c2cc(OCCCCCO)ccc2C(F)(F)F)ccn1)c1nnc(Cc2ccccc2F)[nH]1` [Example 276, 5-(2-fluorobenzyl)-N-(4-(5-((5-hydroxypentyl)oxy)-2-(trifluoromethyl)phenyl)pyridin-2-yl)-4H-1,2,4-triazole-3-carboxamide]: the concentration for half-maximal inhibition (IC50) was ≤ 100 nM.

Take `O=C(Nc1cc(-c2cc(OCCCCCO)ccc2C(F)(F)F)ccn1)c1nnc(CC2CCCC2)[nH]1` [Example 277, 5-(cyclopentylmethyl)-N-(4-(5-((5-hydroxypentyl)oxy)-2-(trifluoromethyl)phenyl)pyridin-2-yl)-4H-1,2,4-triazole-3-carboxamide]: the IC50 is ≤ 100 nM.

As for `O=C(Nc1cc(-c2cc(OCCCCCO)ccc2C(F)(F)F)ccn1)c1nnc(CC2CCCCC2)[nH]1` [Example 278, 5-(cyclohexylmethyl)-N-(4-(5-((5-hydroxypentyl)oxy)-2-(trifluoromethyl)phenyl)pyridin-2-yl)-4H-1,2,4-triazole-3-carboxamide], the IC50 is ≤ 100 nM.

Take `COCCOc1ccc(C(F)(F)F)c(-c2ccnc(NC(=O)c3nnc(Cc4ccccc4)[nH]3)c2)c1` [Example 279, 5-benzyl-N-(4-(5-(2-methoxyethoxy)-2-(trifluoromethyl)phenyl)pyridin-2-yl)-4H-1,2,4-triazole-3-carboxamide]: the IC50 was ≤ 100 nM.

On to `COCCOc1ccc(C(F)(F)F)c(-c2ccnc(NC(=O)c3nnc(Cc4ccccc4F)[nH]3)c2)c1` [Example 280, 5-(2-fluorobenzyl)-N-(4-(5-(2-methoxyethoxy)-2-(trifluoromethyl)phenyl)pyridin-2-yl)-4H-1,2,4-triazole-3-carboxamide], for which the IC50 is ≤ 100 nM.

`COCCOc1ccc(C(F)(F)F)c(-c2ccnc(NC(=O)c3nnc(CC4CCCC4)[nH]3)c2)c1` [Example 281, 5-(cyclopentylmethyl)-N-(4-(5-(2-methoxyethoxy)-2-(trifluoromethyl)phenyl)pyridin-2-yl)-4H-1,2,4-triazole-3-carboxamide]: the IC50 is ≤ 100 nM.

Consider `COCCOc1ccc(C(F)(F)F)c(-c2ccnc(NC(=O)c3nnc(CC4CCCCC4)[nH]3)c2)c1` [Example 282, 5-(cyclohexylmethyl)-N-(4-(5-(2-methoxyethoxy)-2-(trifluoromethyl)phenyl)pyridin-2-yl)-4H-1,2,4-triazole-3-carboxamide], for which the IC50 is ≤ 100 nM.

As to `CCOCCOc1ccc(C(F)(F)F)c(-c2ccnc(NC(=O)c3nnc(Cc4ccccc4)[nH]3)c2)c1` [Example 283, 5-benzyl-N-(4-(5-(2-ethoxyethoxy)-2-(trifluoromethyl)phenyl)pyridin-2-yl)-4H-1,2,4-triazole-3-carboxamide], the IC50 is ≤ 100 nM.

As to `CCOCCOc1ccc(C(F)(F)F)c(-c2ccnc(NC(=O)c3nnc(Cc4ccccc4F)[nH]3)c2)c1` [Example 284, 5-(2-fluorobenzyl)-N-(4-(5-(2-ethoxyethoxy)-2-(trifluoromethyl)phenyl)pyridin-2-yl)-4H-1,2,4-triazole-3-carboxamide], the IC50 is ≤ 100 nM.

Consider `CCOCCOc1ccc(C(F)(F)F)c(-c2ccnc(NC(=O)c3nnc(CC4CCCC4)[nH]3)c2)c1` [Example 285, 5-(cyclopentylmethyl)-N-(4-(5-(2-ethoxyethoxy)-2-(trifluoromethyl)phenyl)pyridin-2-yl)-4H-1,2,4-triazole-3-carboxamide], for which the IC50 was ≤ 100 nM.

With `CCOCCOc1ccc(C(F)(F)F)c(-c2ccnc(NC(=O)c3nnc(CC4CCCCC4)[nH]3)c2)c1` [Example 286, 5-(cyclohexylmethyl)-N-(4-(5-(2-ethoxyethoxy)-2-(trifluoromethyl)phenyl)pyridin-2-yl)-4H-1,2,4-triazole-3-carboxamide], the IC50 was ≤ 100 nM.

As for `CC(C)OCCOc1ccc(C(F)(F)F)c(-c2ccnc(NC(=O)c3nnc(Cc4ccccc4)[nH]3)c2)c1` [Example 287, 5-benzyl-N-(4-(5-(2-isopropoxyethoxy)-2-(trifluoromethyl)phenyl)pyridin-2-yl)-4H-1,2,4-triazole-3-carboxamide], the IC50 is ≤ 100 nM.

Turning to `CC(C)OCCOc1ccc(C(F)(F)F)c(-c2ccnc(NC(=O)c3nnc(Cc4ccccc4F)[nH]3)c2)c1` [Example 288, 5-(2-fluorobenzyl)-N-(4-(5-(2-isopropoxyethoxy)-2-(trifluoromethyl)phenyl)pyridin-2-yl)-4H-1,2,4-triazole-3-carboxamide], the IC50 is ≤ 100 nM.

Take `CC(C)OCCOc1ccc(C(F)(F)F)c(-c2ccnc(NC(=O)c3nnc(CC4CCCC4)[nH]3)c2)c1` [Example 289, 5-(cyclopentylmethyl)-N-(4-(5-(2-isopropoxyethoxy)-2-(trifluoromethyl)phenyl)pyridin-2-yl)-4H-1,2,4-triazole-3-carboxamide]: the IC50 was ≤ 100 nM.

For `CC(C)OCCOc1ccc(C(F)(F)F)c(-c2ccnc(NC(=O)c3nnc(CC4CCCCC4)[nH]3)c2)c1` [Example 290, 5-(cyclohexylmethyl)-N-(4-(5-(2-isopropoxyethoxy)-2-(trifluoromethyl)phenyl)pyridin-2-yl)-4H-1,2,4-triazole-3-carboxamide], the IC50 was ≤ 100 nM.

For `CC(C)(C)OCCOc1ccc(C(F)(F)F)c(-c2ccnc(NC(=O)c3nnc(Cc4ccccc4)[nH]3)c2)c1` [Example 291, 5-benzyl-N-(4-(5-(2-(tert-butoxy)ethoxy)-2-(trifluoromethyl)phenyl)pyridin-2-yl)-4H-1,2,4-triazole-3-carboxamide], the IC50 was ≤ 100 nM.

In the case of `CC(C)(C)OCCOc1ccc(C(F)(F)F)c(-c2ccnc(NC(=O)c3nnc(Cc4ccccc4F)[nH]3)c2)c1` [Example 292, 5-(2-fluorobenzyl)-N-(4-(5-(2-(tert-butoxy)ethoxy)-2-(trifluoromethyl)phenyl)pyridin-2-yl)-4H-1,2,4-triazole-3-carboxamide], the IC50 was ≤ 100 nM.

On to `CC(C)(C)OCCOc1ccc(C(F)(F)F)c(-c2ccnc(NC(=O)c3nnc(CC4CCCC4)[nH]3)c2)c1` [Example 293, 5-(cyclopentylmethyl)-N-(4-(5-(2-(tert-butoxy)ethoxy)-2-(trifluoromethyl)phenyl)pyridin-2-yl)-4H-1,2,4-triazole-3-carboxamide], for which the IC50 is ≤ 100 nM.

Take `CC(C)(C)OCCOc1ccc(C(F)(F)F)c(-c2ccnc(NC(=O)c3nnc(CC4CCCCC4)[nH]3)c2)c1` [Example 294, 5-(cyclohexylmethyl)-N-(4-(5-(2-(tert-butoxy)ethoxy)-2-(trifluoromethyl)phenyl)pyridin-2-yl)-4H-1,2,4-triazole-3-carboxamide]: the IC50 is ≤ 100 nM.

As for `COCCCOc1ccc(C(F)(F)F)c(-c2ccnc(NC(=O)c3nnc(Cc4ccccc4)[nH]3)c2)c1` [Example 295, 5-benzyl-N-(4-(5-(3-methoxypropoxy)-2-(trifluoromethyl)phenyl)pyridin-2-yl)-4H-1,2,4-triazole-3-carboxamide], the IC50 is ≤ 100 nM.
